Laboratory results as given in patent US20180110754A1, “CENICRIVIROC FOR THE TREATMENT OF FIBROSIS” (Tobira Therapeutics, Inc., priority 2015, published 2018).

System: MCP-1, sCD14, hs-CRP, IL-6, D-dimer, fibrinogen
Assay: Study 202: biomarkers of inflammation and immune function
Assay type: in vivo, human
Conditions: EFV 600 mg
Procedure: As an exploratory analysis, levels of inflammation biomarkers MCP-1, sCD14, high sensitivity C-reactive protein [hs-CRP], interleukin-6 [IL-6], D-dimer, and fibrinogen) were measured. Baseline values and changes from baseline at Week 24 and Week 48 of MCP-1, sCD14, hs-CRP, IL-6, D-dimer, and fibrinogen are summarized in Table 25.
The sCD14 samples were originally analyzed in 2 separate batches: Batch 1 included samples leading up to the Week 24 primary analysis and Batch 2 included Week 32 and Week 48 (end of study) samples. A repeat analysis of archived samples all analyzed in one batch was conducted for consistency in analysis across time points. To control for the effects of covariates, a linear mixed-model repeated-measures analysis was conducted on the changes from baseline in sCD14 (analysis dated September 2013).

## O=C1Nc2ccc(Cl)cc2[C@@](C#CC2CC2)(C(F)(F)F)O1 [EFV, efavirenz, reference compound]
  D-dimer baseline value, mean: 163 ng/mL
  D-dimer baseline value, median: 150 ng/mL
  D-dimer change from baseline at Week 24, mean: -53 ng/mL
  D-dimer change from baseline at Week 24, median: -26 ng/mL
  D-dimer change from baseline at Week 48, mean: -34 ng/mL
  D-dimer change from baseline at Week 48, median: 0.0 ng/mL
  Fibrinogen baseline value, mean: 258 mg/dL
  Fibrinogen baseline value, median: 245 mg/dL
  Fibrinogen change from baseline at Week 24, mean: -28 mg/dL
  Fibrinogen change from baseline at Week 24, median: -31 mg/dL
  Fibrinogen change from baseline at Week 48, mean: -30 mg/dL
  Fibrinogen change from baseline at Week 48, median: -22 mg/dL
  IL-6 baseline value, mean: 13.81 pg/mL
  IL-6 baseline value, median: 1.90 pg/mL
  IL-6 change from baseline at Week 24, mean: -8.72 pg/mL
  IL-6 change from baseline at Week 24, median: 0.00 pg/mL
  IL-6 change from baseline at Week 48, mean: -13.11 pg/mL
  IL-6 change from baseline at Week 48, median: 0.00 pg/mL
  MCP-1 baseline value, mean: 139 pg/mL
  MCP-1 baseline value, median: 122 pg/mL
  MCP-1 change from baseline at Week 24, mean: -44 pg/mL
  MCP-1 change from baseline at Week 24, median: -17 pg/mL
  MCP-1 change from baseline at Week 48, mean: 4.2 pg/mL
  MCP-1 change from baseline at Week 48, median: 33.6 pg/mL
  hs-CRP baseline value, mean: 0.81 mg/dL
  hs-CRP baseline value, median: 0.14 mg/dL
  hs-CRP change from baseline at Week 24, mean: -0.46 mg/dL
  hs-CRP change from baseline at Week 24, median: -0.01 mg/dL
  hs-CRP change from baseline at Week 48, mean: -0.71 mg/dL
  hs-CRP change from baseline at Week 48, median: -0.03 mg/dL
  sCD14 (original values) baseline value, mean: 2e+06 pg/mL
  sCD14 (original values) baseline value, median: 2.02e+06 pg/mL
  sCD14 (original values) change from baseline at Week 12, mean: 90000 pg/mL
  sCD14 (original values) change from baseline at Week 12, median: 180000 pg/mL
  sCD14 (original values) change from baseline at Week 24, mean: 230000 pg/mL
  sCD14 (original values) change from baseline at Week 24, median: 130000 pg/mL
  sCD14 (original values) change from baseline at Week 32, mean: 480000 pg/mL
  sCD14 (original values) change from baseline at Week 32, median: 170000 pg/mL
  sCD14 (original values) change from baseline at Week 48, mean: 640000 pg/mL
  sCD14 (original values) change from baseline at Week 48, median: 460000 pg/mL
